From ChEMBL document CHEMBL1955826, “Acetylenic acid analogues from the edible mushroom Chanterelle (Cantharellus cibarius) and their effects on the gene expression of peroxisome proliferator-activated receptor-gamma target genes” (Bioorg Med Chem Lett, 2012)
The source made the active and inactive calls. The calls are words filed in the database; no cut-off is given here.

How the values were obtained:
[1] = biological target: T1, Peroxisome proliferator-activated receptor alpha (Homo sapiens) (UniProt Q07869); test: Agonist activity at human PPARalpha expressed in CHO cells co-transfected with pGL3-PPRE3-TK-luc assessed as transactivation at 20 ug/ml after 24 hrs by firefly luciferase reporter gene assay; assay type: functional, cell-based
T1 sequence (whole entry): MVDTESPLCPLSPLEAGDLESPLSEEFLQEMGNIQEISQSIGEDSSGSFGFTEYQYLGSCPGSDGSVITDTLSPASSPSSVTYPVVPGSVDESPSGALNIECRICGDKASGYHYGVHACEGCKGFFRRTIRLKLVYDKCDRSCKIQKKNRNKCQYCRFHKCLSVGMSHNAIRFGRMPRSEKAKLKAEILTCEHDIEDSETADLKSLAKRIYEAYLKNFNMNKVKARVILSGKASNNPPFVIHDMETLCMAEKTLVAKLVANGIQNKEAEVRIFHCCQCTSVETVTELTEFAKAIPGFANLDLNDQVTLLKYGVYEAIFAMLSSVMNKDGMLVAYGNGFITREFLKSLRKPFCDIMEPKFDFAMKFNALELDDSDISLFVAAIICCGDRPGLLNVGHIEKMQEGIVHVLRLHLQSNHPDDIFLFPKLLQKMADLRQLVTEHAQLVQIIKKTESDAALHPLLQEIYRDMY

[2] = biological target: T2, Peroxisome proliferator-activated receptor delta (Homo sapiens) (UniProt Q03181); test: Agonist activity at human PPARdelta expressed in CHO cells co-transfected with pGL3-PPRE3-TK-luc assessed as transactivation at 20 ug/ml after 24 hrs by firefly luciferase reporter gene assay; assay type: functional, cell-based
T2 sequence (whole entry): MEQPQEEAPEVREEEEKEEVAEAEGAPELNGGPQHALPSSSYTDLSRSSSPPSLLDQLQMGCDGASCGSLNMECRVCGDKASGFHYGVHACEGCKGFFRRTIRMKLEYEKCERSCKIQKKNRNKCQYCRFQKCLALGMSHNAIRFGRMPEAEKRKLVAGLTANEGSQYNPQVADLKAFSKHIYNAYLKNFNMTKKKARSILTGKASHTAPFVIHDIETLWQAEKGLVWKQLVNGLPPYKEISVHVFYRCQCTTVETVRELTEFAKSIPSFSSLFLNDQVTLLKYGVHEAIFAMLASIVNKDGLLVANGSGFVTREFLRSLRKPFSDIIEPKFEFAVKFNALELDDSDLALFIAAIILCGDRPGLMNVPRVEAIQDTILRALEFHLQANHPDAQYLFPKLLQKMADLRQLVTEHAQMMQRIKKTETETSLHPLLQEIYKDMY

[3] = biological target: T3, Peroxisome proliferator-activated receptor gamma (Homo sapiens, UniProt P37231); test: Agonist activity at human PPARgamma expressed in CHO cells co-transfected with pGL3-PPRE3-TK-luc assessed as transactivation after 24 hrs by firefly luciferase reporter gene assay; assay type: functional, cell-based
T3 sequence (P37231 whole entry): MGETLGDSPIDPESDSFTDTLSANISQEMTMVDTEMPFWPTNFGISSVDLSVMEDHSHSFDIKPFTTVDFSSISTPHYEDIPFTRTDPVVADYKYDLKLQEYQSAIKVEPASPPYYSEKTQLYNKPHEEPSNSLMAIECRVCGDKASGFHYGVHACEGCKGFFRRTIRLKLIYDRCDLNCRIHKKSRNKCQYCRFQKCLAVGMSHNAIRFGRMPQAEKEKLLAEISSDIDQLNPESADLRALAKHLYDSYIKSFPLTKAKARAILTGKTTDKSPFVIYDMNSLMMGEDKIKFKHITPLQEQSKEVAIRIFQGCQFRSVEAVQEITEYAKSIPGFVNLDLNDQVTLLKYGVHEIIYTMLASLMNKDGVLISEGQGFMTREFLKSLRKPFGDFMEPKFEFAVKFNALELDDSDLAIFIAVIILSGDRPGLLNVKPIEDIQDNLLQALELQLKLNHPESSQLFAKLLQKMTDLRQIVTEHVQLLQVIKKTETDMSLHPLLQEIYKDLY

HepG2 [4] = test: Upregulation of PPARgamma in human HepG2 cells by real-time PCR method; assay type: functional, cell-based
HepG2 [5] = test: Upregulation of PPARgamma in human HepG2 cells t 0.5 to 12.5 uM by real-time PCR method relative to control; assay type: functional
[6] = biological target: T4, Peroxisome proliferator-activated receptor gamma (Homo sapiens) (UniProt P37231); test: Agonist activity at PPARgamma in human HepG2 cells assessed as up-regulation of SCD-1 at 0.5 to 12.5 uM by real-time PCR method; assay type: functional, cell-based
T4 sequence (whole entry): T3 sequence (P37231 whole entry)

For CCC/C=C\C#C/C=C/C(=O)CCCCCCCC(=O)O, the Activity [1] was “inactive”, the Activity [2] was “inactive” and the EC50 [3] was 1880 nM. For the same compound, the Activity (HepG2 [4]) was “Dose-dependent effect”, the “fold change (FC)” value (HepG2 [5]) was 2.43 and the Activity [6] was “inactive”.
In the case of CCC/C=C\C#C/C=C/C(O)CCCCCCCC(=O)O (centres undefined), the Activity [1] is reported as “inactive”, the Activity [2] is reported as “inactive” and the EC50 [3] is reported as over 68400 nM.
